This assay deals with T1, UPPSBf (undecaprenyl pyrophosphate synthase) (Bacteroides fragilis, UniProt Q5LI17).
T1 sequence (Q5LI17 1-244): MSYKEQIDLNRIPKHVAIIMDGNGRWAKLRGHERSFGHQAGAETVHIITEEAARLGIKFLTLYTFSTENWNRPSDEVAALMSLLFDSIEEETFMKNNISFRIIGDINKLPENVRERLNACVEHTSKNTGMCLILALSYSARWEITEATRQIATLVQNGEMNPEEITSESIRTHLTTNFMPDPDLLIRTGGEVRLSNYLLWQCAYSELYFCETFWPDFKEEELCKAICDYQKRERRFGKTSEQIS
The experiment in a line: fluorescence plate assay, inhibition of […] 2AA-GPP elongation. In kind it is biochemical.

One may read the IC50 as the concentration that inhibits the measured activity by half.

Turning to `O=P(O)(O)OP(=O)(O)O` [diphosphate], the IC50 was determined as 1000 ± 200 µM.
